Assay: xn = mol fraction of the nth substance listed
Conditions: 101.33 kPa

CC(N)CN (stereo not given) + OCCCCO
viscosity [mPa·s]
Conditions	293.15 K	298.15 K	303.15 K	308.15 K	313.15 K	318.15 K
x2 = 0.0415	2.17	1.92	1.66	1.48	1.3	1.21
x2 = 0.0837	2.83	2.5	2.1	1.86	1.63	1.54
x2 = 0.1267	3.76	3.28	2.72	2.37	2.07	1.91
x2 = 0.1705	5.08	4.37	3.59	3.08	2.65	2.44
x2 = 0.2152	6.86	5.84	4.71	4.02	3.41	3.11
x2 = 0.2606	8.9	7.88	6.27	5.26	4.42	–
x2 = 0.3069	13.32	10.91	8.54	7.05	5.85	–
x2 = 0.3541	18.39	14.82	11.39	9.32	7.62	–
x2 = 0.4022	25.44	20.09	15.23	12.31	9.87	–
x2 = 0.4513	34.76	27.12	20.33	16.17	13.1	–
x2 = 0.5013	47.13	36.26	26.83	21.01	16.42	–
x2 = 0.5523	61.72	47.01	34.44	26.7	20.75	–
x2 = 0.6043	75.89	57.65	42	32.37	25.02	–
x2 = 0.6574	90.68	69.04	50.16	38.64	29.82	–
x2 = 0.7116	99.83	76.3	55.75	42.89	33.12	–
x2 = 0.7669	106	81.64	60.1	46.57	36.08	–
x2 = 0.8233	107.2	83.62	61.98	48.39	37.8	–
x2 = 0.881	104.3	82.14	61.43	48.46	38.15	–
x2 = 0.9399	98.79	78.35	59.29	47.22	37.43	–

CC(N)CN (stereo not given) + OCCO
viscosity [mPa·s]
Conditions	298.15 K	303.15 K	308.15 K	313.15 K	318.15 K
x2 = 0.0513	1.89	1.66	1.4	1.33	1.23
x2 = 0.1024	2.46	2.17	1.8	1.69	1.53
x2 = 0.1534	3.22	2.9	2.34	2.19	1.98
x2 = 0.2043	4.66	3.91	3.1	2.84	2.51
x2 = 0.255	6.47	5.31	4.14	3.73	3.23
x2 = 0.3056	9.02	7.28	5.57	4.91	4.28
x2 = 0.356	12.47	9.89	7.43	6.42	5.39
x2 = 0.4064	17.12	13.17	9.78	8.33	6.89
x2 = 0.4566	22.35	17	12.38	10.39	8.36
x2 = 0.5066	27.55	20.91	15.09	12.54	10
x2 = 0.5565	32.68	24.47	17.48	14.47	11.46
x2 = 0.6063	36.17	26.99	19.26	15.91	12.62
x2 = 0.6556	37.44	28.04	20.15	16.67	13.25
x2 = 0.7055	36.53	27.76	20.09	16.66	13.32
x2 = 0.7549	34.46	26.24	19.07	15.99	12.78
x2 = 0.8042	32.78	24.03	17.71	14.9	11.97
x2 = 0.8533	28.17	21.54	15.99	13.67	11.17
x2 = 0.9024	24.94	18.68	14.07	12.16	10
x2 = 0.9512	20.88	16.21	12.23	10.67	8.83
